Source: patent US20250163104A1, “MACROCYCLIC IMMUNOMODULATORS” (priority 2021, published 2025)
Where a SMILES comes first, the peptide text is derived from it. Bridges are numbered along the chain shown (N, C = ends). [ ]: non-standard residue; d: D form. The star is where a group is joined. Phe(3-COOH) = N[C@@H](Cc1cccc(C(=O)O)c1)C(=O)O; Phe(4-COOH) = N[C@@H](Cc1ccc(C(=O)O)cc1)C(=O)O; Trp(7-F) = N[C@@H](Cc1c[nH]c2c(F)cccc12)C(=O)O; Trp(7-Me) = Cc1cccc2c(C[C@H](N)C(=O)O)c[nH]c12; Phe(4-CH2NH2) = NCc1ccc(C[C@H](N)C(=O)O)cc1; Bip = N[C@@H](Cc1ccc(-c2ccccc2)cc1)C(=O)O; Phe(3-Me) = Cc1cccc(C[C@H](N)C(=O)O)c1; Cha = N[C@@H](CC1CCCCC1)C(=O)O; Cit = NC(=O)NCCC[C@H](N)C(=O)O; Hpra = C#CCC[C@H](N)C(=O)O; dDab = NCC[C@@H](N)C(=O)O; Carboxymethyl = O=C(O)C*; Orn = NCCC[C@H](N)C(=O)O; dDap = NC[C@@H](N)C(=O)O; Dab = NCC[C@H](N)C(=O)O; Dap = NC[C@H](N)C(=O)O; X2 = Cc1cnc(CN*)cn1; Propargyl = C#CC*

These compounds were tested against T1, human PD-1 / PD-L1-Ig binding on Jurkat cell line over-expressing human PD-1 (Jurkat-PD-1) (Homo sapiens, UniProt Q15116) (assay: Jurkat-PD-1 Cell Binding High-Content Screening Assay (CBA)). Conditions: Jurkat-PD-1 cells, PE-labeled PD-L1-Ig 20 nM final; read-out: Jurkat HPD1_PDL1 IC50.
T1 construct: expressed in transfected cells; host or cells: Jurkat
T1 sequence (Q15116 25-288): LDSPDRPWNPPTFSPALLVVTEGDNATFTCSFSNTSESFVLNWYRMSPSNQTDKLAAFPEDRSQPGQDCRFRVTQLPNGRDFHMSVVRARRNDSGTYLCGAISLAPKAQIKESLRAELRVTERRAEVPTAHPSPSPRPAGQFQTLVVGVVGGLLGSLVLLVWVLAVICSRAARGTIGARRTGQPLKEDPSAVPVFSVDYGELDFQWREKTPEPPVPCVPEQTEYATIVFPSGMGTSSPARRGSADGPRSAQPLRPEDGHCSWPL
Format: cell-based
How it was run: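 Binding of fluorescent PD-L1-Ig (phycoerythrin linked via the Ig tag, 20 nM final) to PD-1-overexpressing Jurkat cells was imaged after a 2 h, 37° C compound pretreatment and 1 hour ligand incubation.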
In the case of `Cc1cccc2c(C[C@@H]3NC(=O)[C@H](CC(=O)O)NC(=O)[C@H](Cc4ccc(OCC(=O)O)cc4)NC(=O)[C@H](CN)NC(=O)CSC[C@@H](C(=O)N[C@@H](CCN)C(N)=O)NC(=O)[C@H]([C@@H](C)O)NC(=O)[C@H](C(C)C)NC(=O)[C@H](CC4CCCCC4)NC(=O)[C@H](CCN)NC(=O)[C@@H](CC(C)C)NC(=O)[C@H](CCCN)NC(=O)[C@H](C(C)C)NC(=O)[C@H](Cc4ccc(-c5ccccc5)cc4)NC(=O)[C@H](C(C)C)NC3=O)c[nH]c12` [Compound 2018] ({CH2CO}-[Dap]Y(Carboxymethyl)D[Trp(7-Me)]V[Bip]V[Orn][dL][Dab][Cha]VTC[Dab]-NH2; thioether N-14), the IC50 is reported as 335 nM. Work on `Cc1cccc(C[C@@H]2NC(=O)[C@H](CC(=O)O)NC(=O)[C@H](Cc3ccc(OCC(=O)O)cc3)NC(=O)[C@H](CN)NC(=O)CSC[C@@H](C(=O)N[C@@H](C)C(=O)NCc3cnc(C)cn3)NC(=O)[C@H](CN)NC(=O)[C@H](C(C)C)NC(=O)[C@H](CC3CCCCC3)NC(=O)[C@H](CCN)NC(=O)[C@@H](CC(C)C)NC(=O)[C@H](CCCN)NC(=O)[C@H](CCCNC(N)=O)NC(=O)[C@H](Cc3ccc(-c4ccccc4)cc3)NC(=O)[C@H](C(C)C)NC2=O)c1` [Compound 2019] ({CH2CO}-[Dap]Y(Carboxymethyl)D[Phe(3-Me)]V[Bip][Cit][Orn][dL][Dab][Cha]V[Dap]CA-X2; thioether N-14) yielded an IC50 of 12.8 nM. In the case of `CC(C)C[C@H]1NC(=O)[C@H](CCCN)NC(=O)[C@H](C(C)C)NC(=O)[C@H](Cc2ccc(-c3ccccc3)cc2)NC(=O)[C@H](C(C)C)NC(=O)[C@H](Cc2c[nH]c3c(F)cccc23)NC(=O)[C@H](CC(=O)O)NC(=O)[C@H](Cc2ccc(OCC(=O)O)cc2)NC(=O)[C@H](CN)NC(=O)CSC[C@@H](C(=O)N[C@@H](CCN)C(N)=O)NC(=O)[C@H]([C@@H](C)O)NC(=O)[C@H](C(C)C)NC(=O)[C@H](CC2CCCCC2)NC(=O)[C@H](CCN)NC1=O` [Compound 2020] ({CH2CO}-[Dap]Y(Carboxymethyl)D[Trp(7-F)]V[Bip]V[Orn][dL][Dab][Cha]VTC[Dab]-NH2; thioether N-14), the IC50 is reported as 13.1 nM. For `CC(C)C[C@@H]1NC(=O)[C@H](Cc2c[nH]c3ccccc23)NC(=O)[C@H](CC(=O)O)NC(=O)[C@H](Cc2cccc(C(=O)O)c2)NC(=O)[C@H](CN)NC(=O)CSC[C@@H](C(=O)NCC(N)=O)NC(=O)[C@H](CO)NC(=O)[C@H](C(C)C)NC(=O)[C@H](CC2CCCCC2)NC(=O)[C@H](CCN)NC(=O)[C@@H](CC(C)C)NC(=O)[C@H](CCCN)NC(=O)[C@H](C(C)C)NC(=O)[C@H](Cc2ccc(-c3ccccc3)cc2)NC1=O` [Compound 2021] ({CH2CO}-[Dap][Phe(3-COOH)]DWL[Bip]V[Orn][dL][Dab][Cha]VSCG-NH2; thioether N-14), the IC50 was 15.1 nM. For `C#CCOc1ccc(C[C@@H]2NC(=O)[C@H](Cc3cccc(C)c3)NC(=O)[C@H](CC(=O)O)NC(=O)[C@H](Cc3ccc(C(=O)O)cc3)NC(=O)[C@H](CN)NC(=O)CSC[C@@H](C(=O)N[C@@H](CCN)C(N)=O)NC(=O)[C@H]([C@@H](C)O)NC(=O)[C@H](C(C)C)NC(=O)[C@H](CC3CCCCC3)NC(=O)[C@H](CCN)NC(=O)[C@@H](CC(C)C)NC(=O)[C@H](CCCN)NC(=O)[C@H](C(C)C)NC(=O)[C@H](Cc3ccc(-c4ccccc4)cc3)NC2=O)cc1` [Compound 2022] ({CH2CO}-[Dap][Phe(4-COOH)]D[Phe(3-Me)]Y(Propargyl)[Bip]V[Orn][dL][Dab][Cha]VTC[Dab]-NH2; thioether N-14), the IC50 was 6.9 nM. In the case of `C#CCC[C@@H]1NC(=O)[C@H](Cc2ccc(-c3ccccc3)cc2)NC(=O)[C@H](C(C)C)NC(=O)[C@H](Cc2cccc(C)c2)NC(=O)[C@H](CC(=O)O)NC(=O)[C@H](Cc2ccc(C(=O)O)cc2)NC(=O)[C@H](CN)NC(=O)CSC[C@@H](C(=O)N[C@@H](CCN)C(N)=O)NC(=O)[C@H]([C@@H](C)O)NC(=O)[C@H](C(C)C)NC(=O)[C@H](CC2CCCCC2)NC(=O)[C@H](CCN)NC(=O)[C@@H](CC(C)C)NC(=O)[C@H](CCCN)NC1=O` [Compound 2023] ({CH2CO}-[Dap][Phe(4-COOH)]D[Phe(3-Me)]V[Bip][Hpra][Orn][dL][Dab][Cha]VTC[Dab]-NH2; thioether N-14), the IC50 is reported as 11.4 nM. For `C#CCOc1ccc(C[C@@H]2NC(=O)[C@H](Cc3ccc(-c4ccccc4)cc3)NC(=O)[C@H](C(C)C)NC(=O)[C@H](Cc3cccc(C)c3)NC(=O)[C@H](CC(=O)O)NC(=O)[C@H](Cc3ccc(C(=O)O)cc3)NC(=O)[C@H](CN)NC(=O)CSC[C@@H](C(=O)N[C@@H](CCN)C(N)=O)NC(=O)[C@H]([C@@H](C)O)NC(=O)[C@H](C(C)C)NC(=O)[C@H](CC3CCCCC3)NC(=O)[C@H](CCN)NC(=O)[C@@H](CC(C)C)NC(=O)[C@H](CCCN)NC2=O)cc1` [Compound 2024] ({CH2CO}-[Dap][Phe(4-COOH)]D[Phe(3-Me)]V[Bip]Y(Propargyl)[Orn][dL][Dab][Cha]VTC[Dab]-NH2; thioether N-14), the IC50 was 13.6 nM. `C#CCC[C@@H]1NC(=O)[C@@H](CC(C)C)NC(=O)[C@H](CCCN)NC(=O)[C@H](C(C)C)NC(=O)[C@H](Cc2ccc(-c3ccccc3)cc2)NC(=O)[C@H](C(C)C)NC(=O)[C@H](Cc2cccc(C)c2)NC(=O)[C@H](CC(=O)O)NC(=O)[C@H](Cc2ccc(C(=O)O)cc2)NC(=O)[C@H](CN)NC(=O)CSC[C@@H](C(=O)N[C@@H](CCN)C(N)=O)NC(=O)[C@H]([C@@H](C)O)NC(=O)[C@H](C(C)C)NC(=O)[C@H](CC2CCCCC2)NC1=O` [Compound 2025] ({CH2CO}-[Dap][Phe(4-COOH)]D[Phe(3-Me)]V[Bip]V[Orn][dL][Hpra][Cha]VTC[Dab]-NH2; thioether N-14) showed an IC50 of 15 nM. Compound `C#CCOc1ccc(C[C@@H]2NC(=O)[C@@H](CC(C)C)NC(=O)[C@H](CCCN)NC(=O)[C@H](C(C)C)NC(=O)[C@H](Cc3ccc(-c4ccccc4)cc3)NC(=O)[C@H](C(C)C)NC(=O)[C@H](Cc3cccc(C)c3)NC(=O)[C@H](CC(=O)O)NC(=O)[C@H](Cc3ccc(C(=O)O)cc3)NC(=O)[C@H](CN)NC(=O)CSC[C@@H](C(=O)N[C@@H](CCN)C(N)=O)NC(=O)[C@H]([C@@H](C)O)NC(=O)[C@H](C(C)C)NC(=O)[C@H](CC3CCCCC3)NC2=O)cc1` [Compound 2026] ({CH2CO}-[Dap][Phe(4-COOH)]D[Phe(3-Me)]V[Bip]V[Orn][dL]Y(Propargyl)[Cha]VTC[Dab]-NH2; thioether N-14) has an IC50 of 133 nM. `C#CCC[C@@H]1NC(=O)[C@H](CC2CCCCC2)NC(=O)[C@H](CCN)NC(=O)[C@@H](CC(C)C)NC(=O)[C@H](CCCN)NC(=O)[C@H](C(C)C)NC(=O)[C@H](Cc2ccc(-c3ccccc3)cc2)NC(=O)[C@H](C(C)C)NC(=O)[C@H](Cc2cccc(C)c2)NC(=O)[C@H](CC(=O)O)NC(=O)[C@H](Cc2ccc(C(=O)O)cc2)NC(=O)[C@H](CN)NC(=O)CSC[C@@H](C(=O)N[C@@H](CCN)C(N)=O)NC(=O)[C@H]([C@@H](C)O)NC1=O` [Compound 2027] ({CH2CO}-[Dap][Phe(4-COOH)]D[Phe(3-Me)]V[Bip]V[Orn][dL][Dab][Cha][Hpra]TC[Dab]-NH2; thioether N-14) was tested, and the IC50 was 10.3 nM. `C#CCOc1ccc(C[C@@H]2NC(=O)[C@H](CC3CCCCC3)NC(=O)[C@H](CCN)NC(=O)[C@@H](CC(C)C)NC(=O)[C@H](CCCN)NC(=O)[C@H](C(C)C)NC(=O)[C@H](Cc3ccc(-c4ccccc4)cc3)NC(=O)[C@H](C(C)C)NC(=O)[C@H](Cc3cccc(C)c3)NC(=O)[C@H](CC(=O)O)NC(=O)[C@H](Cc3ccc(C(=O)O)cc3)NC(=O)[C@H](CN)NC(=O)CSC[C@@H](C(=O)N[C@@H](CCN)C(N)=O)NC(=O)[C@H]([C@@H](C)O)NC2=O)cc1` [Compound 2028] ({CH2CO}-[Dap][Phe(4-COOH)]D[Phe(3-Me)]V[Bip]V[Orn][dL][Dab][Cha]Y(Propargyl)TC[Dab]-NH2; thioether N-14) showed an IC50 of 9.3 nM. With `Cc1cccc(C[C@@H]2NC(=O)[C@H](CC(=O)O)NC(=O)[C@H](Cc3ccc(C(=O)O)cc3)NC(=O)[C@H](CN)NC(=O)CSC[C@@H](C(=O)N[C@@H](CCN)C(N)=O)NC(=O)[C@@H](CCN)NC(=O)[C@H](C(C)C)NC(=O)[C@H](CC3CCCCC3)NC(=O)[C@H](CCN)NC(=O)[C@@H](CC(C)C)NC(=O)[C@H](CCCN)NC(=O)[C@H](C(C)C)NC(=O)[C@H](Cc3ccc(-c4ccccc4)cc3)NC(=O)[C@H](C(C)C)NC2=O)c1` [Compound 2029] ({CH2CO}-[Dap][Phe(4-COOH)]D[Phe(3-Me)]V[Bip]V[Orn][dL][Dab][Cha]V[dDab]C[Dab]-NH2; thioether N-14) the IC50 was 4.1 nM. `Cc1cccc(C[C@@H]2NC(=O)[C@H](CC(=O)O)NC(=O)[C@H](Cc3ccc(C(=O)O)cc3)NC(=O)[C@H](CN)NC(=O)CSC[C@@H](C(=O)N[C@@H](CCN)C(N)=O)NC(=O)[C@@H](CN)NC(=O)[C@H](C(C)C)NC(=O)[C@H](CC3CCCCC3)NC(=O)[C@H](CCN)NC(=O)[C@@H](CC(C)C)NC(=O)[C@H](CCCN)NC(=O)[C@H](C(C)C)NC(=O)[C@H](Cc3ccc(-c4ccccc4)cc3)NC(=O)[C@H](C(C)C)NC2=O)c1` [Compound 2030] ({CH2CO}-[Dap][Phe(4-COOH)]D[Phe(3-Me)]V[Bip]V[Orn][dL][Dab][Cha]V[dDap]C[Dab]-NH2; thioether N-14) was tested, and the IC50 was 14.7 nM. `Cc1cccc(C[C@@H]2NC(=O)[C@H](CC(=O)O)NC(=O)[C@H](Cc3ccc(C(=O)O)cc3)NC(=O)[C@H](CN)NC(=O)CSC[C@@H](C(N)=O)NC(=O)[C@H](CO)NC(=O)[C@H](C(C)C)NC(=O)[C@H](CC3CCCCC3)NC(=O)[C@H](CCN)NC(=O)[C@@H](CC(C)C)NC(=O)[C@H](CCCN)NC(=O)[C@H](C(C)C)NC(=O)[C@H](Cc3ccc(-c4ccccc4)cc3)NC(=O)[C@H](Cc3ccc(CN)cc3)NC2=O)c1` [Compound 2031] ({CH2CO}-[Dap][Phe(4-COOH)]D[Phe(3-Me)][Phe(4-CH2NH2)][Bip]V[Orn][dL][Dab][Cha]VSC-NH2; thioether N-14) showed an IC50 of 10.9 nM.
